Test results published in ChEMBL document CHEMBL1201862, “PubChem BioAssay data set” (2004).
Active and inactive are the calls of the source.

Experiments:
[1] = target: Glyceraldehyde-3-phosphate dehydrogenase (Homo sapiens, UniProt P04406)
[2] = target: T1, Alkaline phosphatase, tissue-nonspecific isozyme (Homo sapiens, UniProt P05186); test: potency against alkaline phosphatase TNAP – biochemical, luminescent, dose response, SAR follow-up (AID 1056)
T1 sequence (P05186 whole entry): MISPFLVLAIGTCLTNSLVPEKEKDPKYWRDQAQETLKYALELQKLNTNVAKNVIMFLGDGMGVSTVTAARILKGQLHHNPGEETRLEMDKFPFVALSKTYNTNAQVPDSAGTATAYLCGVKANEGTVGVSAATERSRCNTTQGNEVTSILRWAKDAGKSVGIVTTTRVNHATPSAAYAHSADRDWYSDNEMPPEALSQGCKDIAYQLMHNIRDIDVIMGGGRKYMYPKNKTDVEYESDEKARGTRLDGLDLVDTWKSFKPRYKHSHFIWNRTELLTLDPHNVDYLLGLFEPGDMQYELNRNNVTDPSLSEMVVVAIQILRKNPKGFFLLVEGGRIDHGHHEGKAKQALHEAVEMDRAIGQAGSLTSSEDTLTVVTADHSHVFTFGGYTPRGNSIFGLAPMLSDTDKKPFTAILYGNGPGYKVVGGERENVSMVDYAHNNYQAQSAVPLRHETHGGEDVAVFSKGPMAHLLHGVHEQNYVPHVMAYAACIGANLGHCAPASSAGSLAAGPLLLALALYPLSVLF

BJ [3] = test: BJ-TERT-LT-ST fibroblast viability loss – cell-based, RAS-independent, luminescence, dose response (AID 1935); format: functional; conditions: Homo sapiens;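 note: BJ fibroblasts immortalized with TERT plus LT and ST oncogenes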
[4] = DRD fibroblast viability loss – cell-based, non-viral oncogenic, luminescence, dose response (AID 1934); format: functional; conditions: Homo sapiens
[5] = target: T2, Replicative DNA helicase DnaB (Mycobacterium tuberculosis, UniProt P9WMR3); test: DnaB intein splicing inhibitors, dose response, biochemical, cell-free fluorescence (AID 449749); format: functional
T2 sequence (P9WMR3 whole entry): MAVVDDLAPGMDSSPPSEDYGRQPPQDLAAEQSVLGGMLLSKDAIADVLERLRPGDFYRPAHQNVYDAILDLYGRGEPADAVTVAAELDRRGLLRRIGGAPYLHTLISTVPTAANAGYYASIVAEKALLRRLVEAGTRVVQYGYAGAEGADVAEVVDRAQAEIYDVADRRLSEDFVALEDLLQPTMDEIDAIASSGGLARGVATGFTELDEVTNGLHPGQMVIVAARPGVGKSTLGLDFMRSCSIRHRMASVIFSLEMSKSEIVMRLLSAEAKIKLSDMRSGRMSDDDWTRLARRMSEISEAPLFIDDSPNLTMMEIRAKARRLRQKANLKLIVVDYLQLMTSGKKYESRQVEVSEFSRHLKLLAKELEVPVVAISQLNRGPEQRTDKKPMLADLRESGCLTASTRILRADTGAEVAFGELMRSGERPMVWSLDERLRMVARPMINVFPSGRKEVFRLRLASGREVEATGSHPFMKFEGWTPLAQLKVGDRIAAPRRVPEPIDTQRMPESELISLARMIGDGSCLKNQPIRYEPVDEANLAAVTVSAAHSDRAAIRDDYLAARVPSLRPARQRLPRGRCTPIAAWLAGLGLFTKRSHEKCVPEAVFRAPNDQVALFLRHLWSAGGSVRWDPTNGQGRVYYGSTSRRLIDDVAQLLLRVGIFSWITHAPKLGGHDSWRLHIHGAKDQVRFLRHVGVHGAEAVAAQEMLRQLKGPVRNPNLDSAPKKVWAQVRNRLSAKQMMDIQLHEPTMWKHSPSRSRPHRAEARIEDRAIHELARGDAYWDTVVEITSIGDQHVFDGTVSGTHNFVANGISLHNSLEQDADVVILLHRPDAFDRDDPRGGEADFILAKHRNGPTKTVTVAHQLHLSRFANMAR

Hexokinase HKDC1 = target: T3, Hexokinase HKDC1 (Homo sapiens, UniProt Q2TB90); test: inhibition of HKDC1 glucose phosphorylation – biochemical, W721R variant, dose response (AID 504729); format: functional
T3 sequence (Q2TB90 whole entry): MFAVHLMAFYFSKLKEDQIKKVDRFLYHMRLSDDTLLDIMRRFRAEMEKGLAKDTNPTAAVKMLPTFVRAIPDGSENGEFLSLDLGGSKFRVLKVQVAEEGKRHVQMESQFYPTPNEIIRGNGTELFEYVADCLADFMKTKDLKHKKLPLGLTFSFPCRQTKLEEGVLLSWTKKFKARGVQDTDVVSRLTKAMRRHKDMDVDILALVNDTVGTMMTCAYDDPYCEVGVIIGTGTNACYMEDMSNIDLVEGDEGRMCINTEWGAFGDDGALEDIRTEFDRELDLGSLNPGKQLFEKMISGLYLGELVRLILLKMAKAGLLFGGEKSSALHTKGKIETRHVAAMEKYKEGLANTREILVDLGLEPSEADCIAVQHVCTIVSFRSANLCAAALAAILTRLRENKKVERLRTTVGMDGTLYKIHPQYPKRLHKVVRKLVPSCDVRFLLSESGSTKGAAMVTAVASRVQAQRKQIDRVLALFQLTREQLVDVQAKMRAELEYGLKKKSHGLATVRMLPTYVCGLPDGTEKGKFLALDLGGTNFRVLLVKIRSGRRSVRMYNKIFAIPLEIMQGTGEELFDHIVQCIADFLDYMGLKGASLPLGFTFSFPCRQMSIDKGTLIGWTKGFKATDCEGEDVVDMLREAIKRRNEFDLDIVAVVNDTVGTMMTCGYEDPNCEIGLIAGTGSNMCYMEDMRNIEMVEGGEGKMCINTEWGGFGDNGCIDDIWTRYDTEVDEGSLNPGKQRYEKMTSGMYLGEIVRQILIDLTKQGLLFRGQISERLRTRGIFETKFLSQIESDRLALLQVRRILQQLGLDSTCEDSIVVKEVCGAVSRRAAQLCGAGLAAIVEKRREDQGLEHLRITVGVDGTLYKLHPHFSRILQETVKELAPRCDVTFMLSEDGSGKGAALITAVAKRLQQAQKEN

[6] = Intein inhibitors as potential Tuberculosis drugs, a cytotoxicity screen. [Related pubchem assays (depositor defined):AID2221, AID2223, AID434968, AID435010, AID449749, AID449750, AID489010]; format: functional
Protein RecA = target: T4, Protein RecA (Mycobacterium tuberculosis, UniProt P9WHJ3); test: Fluorescence Cell-Free Homogeneous Dose Retest to Identify Inhibitors of RecA-Intein Splicing Activity. [Related pubchem assays (depositor defined):AID2097, AID2223, AID489010, AID492950]; format: functional
T4 sequence (P9WHJ3 whole entry): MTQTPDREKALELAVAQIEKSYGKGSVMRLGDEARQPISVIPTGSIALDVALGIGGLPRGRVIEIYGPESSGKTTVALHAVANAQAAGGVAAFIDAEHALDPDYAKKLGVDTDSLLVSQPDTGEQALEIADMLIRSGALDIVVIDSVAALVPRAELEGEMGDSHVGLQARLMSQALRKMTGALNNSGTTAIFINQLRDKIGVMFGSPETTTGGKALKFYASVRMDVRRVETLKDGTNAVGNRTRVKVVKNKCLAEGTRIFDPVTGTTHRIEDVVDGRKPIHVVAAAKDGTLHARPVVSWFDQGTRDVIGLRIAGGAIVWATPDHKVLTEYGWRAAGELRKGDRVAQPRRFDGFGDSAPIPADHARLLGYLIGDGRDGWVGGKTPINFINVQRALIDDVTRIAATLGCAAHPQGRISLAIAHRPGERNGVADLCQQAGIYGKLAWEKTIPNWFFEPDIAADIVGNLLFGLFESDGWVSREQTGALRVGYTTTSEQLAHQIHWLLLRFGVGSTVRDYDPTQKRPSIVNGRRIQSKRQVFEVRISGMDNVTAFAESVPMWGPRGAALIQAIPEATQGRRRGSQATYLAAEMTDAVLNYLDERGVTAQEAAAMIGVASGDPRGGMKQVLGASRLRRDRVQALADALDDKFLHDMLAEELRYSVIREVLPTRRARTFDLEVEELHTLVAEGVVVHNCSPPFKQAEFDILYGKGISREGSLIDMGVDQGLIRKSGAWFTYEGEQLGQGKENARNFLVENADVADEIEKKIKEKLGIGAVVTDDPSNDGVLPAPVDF

BJ [7] = test: BJ-TERT fibroblast viability loss – cell-based, RAS-independent, luminescence, dose response (AID 1933); format: functional; conditions: Homo sapiens
BJ [8] = test: cells; format: functional, cell-based; conditions: Homo sapiens
[9] = target: Alkaline phosphatase, placental type (Homo sapiens, UniProt P05187); test: human placental alkaline phosphatase inhibition – biochemical, luminescence, confirmation (AID 1512); format: functional
[10] = target: T5, Heat shock factor protein 1 (Mus musculus, UniProt P38532); test: enhancement of HSF1-driven luciferase signal – cell-based, NIH3T3, luminescence, dose retest, confirmation (AID 435004); format: functional;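 note: stress induced by proteasome inhibitor MG132 added 30 min after compound; luciferase reporter driven by HSF1 response element in NIH3T3 cells; actives raise luminescence as potentiators of the MG132 stress response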
T5 sequence (P38532 whole entry): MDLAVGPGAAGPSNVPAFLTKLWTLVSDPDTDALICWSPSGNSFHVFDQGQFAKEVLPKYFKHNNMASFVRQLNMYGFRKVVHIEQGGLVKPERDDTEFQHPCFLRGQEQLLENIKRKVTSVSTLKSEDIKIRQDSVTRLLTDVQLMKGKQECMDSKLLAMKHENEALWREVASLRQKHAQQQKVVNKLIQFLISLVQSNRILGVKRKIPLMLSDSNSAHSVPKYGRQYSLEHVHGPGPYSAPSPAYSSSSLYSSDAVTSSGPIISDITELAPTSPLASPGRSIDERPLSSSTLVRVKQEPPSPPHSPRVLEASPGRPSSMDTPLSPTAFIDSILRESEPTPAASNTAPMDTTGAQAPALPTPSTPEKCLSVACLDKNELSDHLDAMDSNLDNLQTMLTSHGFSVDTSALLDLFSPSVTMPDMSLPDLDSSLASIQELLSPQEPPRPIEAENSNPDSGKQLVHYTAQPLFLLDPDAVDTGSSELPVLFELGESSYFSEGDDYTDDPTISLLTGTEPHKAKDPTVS

Paired box protein Pax-8 = Paired box protein Pax-8 (Homo sapiens, UniProt Q06710); test: PAX8 transcriptional activity inhibition in RMG-I – RMG-I cells, luciferase, cherry-pick, dose response (AID 687027); format: functional, cell-based;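 note: luciferase reporter driven by Pax8 target thyroperoxidase promoter measured by SteadyGlo luminescence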
[11] = general cell-killing toxicity readout – plate reader, dry powder samples, cytotoxicity control for PAX8 inhibitor project, dose response (AID 743021); format: functional, cell-based
Vero = test: mammalian cell viability reduction – secondary assay, cytotoxicity control for West Nile virus antiviral project, dose response (AID 1650); format: functional; conditions: Chlorocebus sabaeus
[12] = reduction of Shn3 3'UTR-driven luciferase in osteoblasts – cell-based, Clone20 osteoblasts, firefly luciferase, cherry-picked, dose response (AID 624132); format: functional;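 note: firefly luciferase luminescence from reporter carrying the Shn3 3'UTR in osteoblasts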
[13] = MIN6 cell viability loss – mouse insulinoma, cytotoxicity control, dose response (AID 2122); format: functional;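 note: confirmatory high-throughput counterscreen run to flag cytotoxic compounds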
[14] = decrease of insulin promoter-GFP reporter – imaging, high-content screening, mouse beta cells (AID 1628); format: functional; conditions: MIN6
Tumor necrosis factor = Tumor necrosis factor (Homo sapiens, UniProt P01375); test: analog potency on TNFa NF-kB signaling – cell-based, revised, SAR follow-up (AID 2337); format: functional
[15] = non-specific 3'UTR reporter inhibition in Clone20-Shn3RL – cell-based, Renilla luciferase, cherry-picked, counter-screen for Shn3 inhibitor project, dose response (AID 624133); format: functional
HEK293 = test: cells; conditions: Homo sapiens
[16] = target: Nucleotide-binding oligomerization domain-containing protein 1 (Homo sapiens, UniProt Q9Y239); test: blockers of NOD1 pathway activity – revised, SAR follow-up (AID 2333); format: functional
[17] = loss of viability in HepG2 cells – cell-based, CellTiter-Glo, cherry-picked, cytotoxicity control for Shn3 inhibitor project, dose response (AID 624134); format: functional
[18] = HEK-293T viability loss after treatment – luminescence, T-cell screen hits, cytotoxicity control for TCR NF-kB inhibitor project, dose response (AID 489026); format: functional, cell-based;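 note: cells exposed to compound about 14 hours before the viability readout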

Sequence of Paired box protein Pax-8 (Q06710 whole entry): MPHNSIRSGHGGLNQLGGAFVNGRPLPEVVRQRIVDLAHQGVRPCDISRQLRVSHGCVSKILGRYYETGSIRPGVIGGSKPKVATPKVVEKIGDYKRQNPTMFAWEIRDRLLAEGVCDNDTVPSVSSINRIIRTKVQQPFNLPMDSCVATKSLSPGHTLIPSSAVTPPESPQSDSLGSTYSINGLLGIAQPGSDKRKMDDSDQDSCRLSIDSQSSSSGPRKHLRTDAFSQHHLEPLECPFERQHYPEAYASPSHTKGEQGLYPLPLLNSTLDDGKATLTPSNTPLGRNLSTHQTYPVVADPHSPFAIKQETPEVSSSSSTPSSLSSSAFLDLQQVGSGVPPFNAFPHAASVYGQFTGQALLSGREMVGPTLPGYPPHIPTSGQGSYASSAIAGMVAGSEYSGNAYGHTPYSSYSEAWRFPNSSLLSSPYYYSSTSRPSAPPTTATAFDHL
Sequence of Tumor necrosis factor (P01375 whole entry): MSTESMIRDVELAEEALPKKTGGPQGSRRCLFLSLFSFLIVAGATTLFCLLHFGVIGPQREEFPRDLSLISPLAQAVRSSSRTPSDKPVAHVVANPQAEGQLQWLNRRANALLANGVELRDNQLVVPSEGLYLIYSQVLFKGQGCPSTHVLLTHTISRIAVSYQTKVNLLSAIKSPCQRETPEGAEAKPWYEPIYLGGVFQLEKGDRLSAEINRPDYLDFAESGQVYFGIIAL
Sequence of Glyceraldehyde-3-phosphate dehydrogenase (P04406 whole entry): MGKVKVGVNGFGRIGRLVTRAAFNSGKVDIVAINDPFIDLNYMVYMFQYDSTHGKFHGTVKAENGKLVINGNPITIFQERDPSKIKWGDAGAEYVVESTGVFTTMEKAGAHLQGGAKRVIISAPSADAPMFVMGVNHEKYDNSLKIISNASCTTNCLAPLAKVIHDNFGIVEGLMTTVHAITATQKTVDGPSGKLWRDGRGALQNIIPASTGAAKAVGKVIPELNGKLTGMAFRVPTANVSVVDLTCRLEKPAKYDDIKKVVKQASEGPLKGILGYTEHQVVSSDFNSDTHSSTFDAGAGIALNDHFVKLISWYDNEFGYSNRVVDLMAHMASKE
Sequence of Alkaline phosphatase, placental type (P05187 whole entry): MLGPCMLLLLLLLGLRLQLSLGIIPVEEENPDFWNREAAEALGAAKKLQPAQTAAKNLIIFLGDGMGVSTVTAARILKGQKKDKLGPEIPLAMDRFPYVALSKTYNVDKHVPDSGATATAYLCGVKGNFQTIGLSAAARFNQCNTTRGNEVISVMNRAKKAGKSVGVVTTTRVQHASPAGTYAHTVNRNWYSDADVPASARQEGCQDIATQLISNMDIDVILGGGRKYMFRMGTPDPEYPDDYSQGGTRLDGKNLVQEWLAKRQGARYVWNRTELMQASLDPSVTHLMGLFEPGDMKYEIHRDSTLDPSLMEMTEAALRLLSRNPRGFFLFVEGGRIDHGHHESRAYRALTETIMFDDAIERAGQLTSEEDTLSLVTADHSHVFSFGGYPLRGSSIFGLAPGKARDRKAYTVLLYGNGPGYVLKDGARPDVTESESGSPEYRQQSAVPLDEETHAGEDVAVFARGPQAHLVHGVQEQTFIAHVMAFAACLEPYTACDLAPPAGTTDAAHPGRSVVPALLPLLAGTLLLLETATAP
Sequence of Nucleotide-binding oligomerization domain-containing protein 1 (Q9Y239 whole entry, the tested form may be a part): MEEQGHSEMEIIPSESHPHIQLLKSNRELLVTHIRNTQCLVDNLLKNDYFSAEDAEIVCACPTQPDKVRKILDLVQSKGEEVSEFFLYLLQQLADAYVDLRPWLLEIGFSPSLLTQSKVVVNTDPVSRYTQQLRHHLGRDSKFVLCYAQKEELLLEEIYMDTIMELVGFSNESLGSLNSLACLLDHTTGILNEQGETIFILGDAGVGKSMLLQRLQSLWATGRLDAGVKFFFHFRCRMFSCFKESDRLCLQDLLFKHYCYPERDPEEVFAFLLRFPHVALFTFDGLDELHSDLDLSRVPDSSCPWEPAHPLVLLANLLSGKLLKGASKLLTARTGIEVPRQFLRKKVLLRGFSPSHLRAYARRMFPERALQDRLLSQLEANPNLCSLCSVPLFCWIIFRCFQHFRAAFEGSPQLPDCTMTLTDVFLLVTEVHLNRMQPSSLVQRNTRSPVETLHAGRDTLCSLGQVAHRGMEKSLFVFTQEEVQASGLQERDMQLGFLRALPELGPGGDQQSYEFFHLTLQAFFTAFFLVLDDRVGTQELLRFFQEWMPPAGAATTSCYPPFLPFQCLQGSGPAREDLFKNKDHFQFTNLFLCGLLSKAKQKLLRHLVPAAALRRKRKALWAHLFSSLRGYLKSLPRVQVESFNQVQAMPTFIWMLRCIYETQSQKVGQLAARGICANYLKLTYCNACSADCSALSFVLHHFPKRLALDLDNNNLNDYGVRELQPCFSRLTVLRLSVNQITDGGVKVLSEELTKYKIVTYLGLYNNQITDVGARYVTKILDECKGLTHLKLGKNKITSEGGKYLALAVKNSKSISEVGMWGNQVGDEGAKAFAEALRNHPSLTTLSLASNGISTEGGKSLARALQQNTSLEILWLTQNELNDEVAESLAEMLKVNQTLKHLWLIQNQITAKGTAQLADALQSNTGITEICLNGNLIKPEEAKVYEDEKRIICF

## O=S(=O)(Nc1ccc2ccccc2c1)c1ccccc1
[1]
  IC50: > 100 µM (not active)
[2]
  IC50: > 100 µM (inactive)

## CC(=O)n1cc(N(C(=O)CCl)c2ccc([N+](=O)[O-])cc2)c2ccccc21
BJ [3]
  EC50: 4.78 µM (inconclusive)
[4]
  EC50: 2.63 µM (inconclusive)
[5]
  AC50: 1.59 µM (active)
Hexokinase HKDC1
  IC50: 27 µM (inactive)
[6]
  CC50: 12.3 µM (active)
Protein RecA
  EC50: 0.358 µM (active)
BJ [7]
  EC50: 2.65 µM (inconclusive)
BJ [8]
  EC50: 2.59 µM (inconclusive)

## Cc1cc(C)nc(SCC(=O)c2cccc(O)c2)n1
[2]
  IC50: > 100 µM (inactive)
[9]
  IC50: > 100 µM (inactive)

## Cc1ccc(N(NC(=O)C(O)(c2ccccc2)c2ccccc2)C(=O)CCl)cc1
[10]
  EC50: > 260 µM (inconclusive)
Paired box protein Pax-8
  AC50: 8.18 µM (active)
[5]
  AC50: 4.45 µM (active)
[11]
  AC50: 11.8 µM (active)
[6]
  CC50: 7.46 µM (active)
Vero
  CC50: 6.32 µM (active)
Protein RecA
  EC50: 0.529 µM (active)

## O=C(Nc1ccc(S(=O)(=O)N2CCCC2)cc1)c1ccc(CN2CCc3ccccc3C2)cc1
[12]
  AC50: 0.575 µM (active)
[13]
  IC50: 0.576 µM (active)
[14]
  IC50: 0.707 µM (active)
Tumor necrosis factor
  IC50: 0.639 µM (active)
[15]
  AC50: 0.406 µM (active)
HEK293
  IC50: 6.77 µM (active)
[16]
  IC50: 0.418 µM (active)
[17]
  AC50: 0.292 µM (active)
[18]
  IC50: > 80 µM (inactive)
